Marks after values point to notes of the source that are not given here.
Legend:
clinical [1] = settings: human, in vivo, iv
Experimental: The pharmacokinetics of intravenously administered cilansetron have also been evaluated in several studies. In a randomized, double-blind, placebo controlled, rising dose, crossover study in 24 male subjects, aged 23-37 years, the single-dose pharmacokinetics of IV cilansetron were evaluated over a 4 mg to 16 mg dose range. Subjects received, at intervals of 1 week, single doses of 4, 8, and 16 mg IV cilansetron in ascending order and a randomized placebo. Infusion times ranged from 15-30 minutes. All doses were administered under fasted conditions.
In a randomized, double-blind, placebo controlled, rising dose, crossover study, 24 male subjects (aged 23-37 years) received single doses of 4, 8, and 16 mg IV cilansetron in ascending order and a randomized placebo, infused over 15-30 minutes. All doses were administered under fasted conditions. FIG. 14 and FIG. 15 present box plots of cilansetron AUC(0-inf) and dose-normalized AUC(0-inf) values (normalized to a 1 mg dose), respectively, and Table 2.7.2.3.13 presents descriptive statistics for the results of statistical pairwise comparisons of dose-normalized parameters between doses.

[2] = test system: healthy, elderly subjects; assay: Study K.241.5014: colonic transit time, elderly, 8 mg TID; format: in vivo, human
Source text: The effect of cilansetron on gastric emptying time and colonic transit time has been studied in 1 clinical study in healthy young subjects and 2 studies in elderly subjects. For measurement of gastric emptying time, breath samples for the determination of the ^12C/^13C ratio were taken on the last day of each treatment period immediately after ingestion of a ^13C labeled meal. The patients' breath was collected in separate 15-minute intervals, for four hours in total. ^13CO2 measurements were performed with an isotope ratio mass spectrometer. The half-life (TK) and lag-time (Tlag), which describe the duration of gastric emptying, were used as the primary parameters to evaluate gastric emptying time. In all 3 studies, colonic transit time was measured by administration of radio-opaque markers for the last six days of each treatment period, followed by a single abdominal X-ray image at 24 hours after ingestion of the last set of markers. The numbers of markers within the colon were used to calculate segmental (right colon, left colon, and rectosigmoid) and total colonic transit time.
Studies K.241.5013 and K.241.5014 were randomized, double-blind, placebo-controlled, 2-way crossover studies in 8 healthy male and female elderly subjects, each (ITT population, aged 64-83 years in K.241.5013 and 66-84 years in K.241.5014). Elderly subjects were selected for these studies because they commonly suffer from constipation and it was of interest whether cilansetron would prolong gastrointestinal transit times in this population. Subjects received cilansetron 4 mg or placebo in Study K.241.5013 and cilansetron 8 mg or placebo in Study K.241.5014. Treatments were administered orally TID for 14 days during each period, with a 14-day washout between periods. The primary efficacy parameter was the total mean colonic transit time during each treatment and the secondary parameters were the segmental colonic transit times and the gastric emptying measurements. One-sided t-tests were used to compare efficacy parameters between the cilansetron and placebo treatments.

clinical [3] = settings: both, human, in vivo, po, 8 mg
Experimental: The effect of hepatic impairment on the pharmacokinetics of cilansetron was evaluated in a multiple-dose, parallel group study in 14 healthy and 14 moderately to severely hepatically impaired male and female subjects, aged 41-70 years. Impaired subjects (Child-Pugh score 7 to 11) were matched to healthy subjects by age (±2 years), sex, menstrual status, and smoking history status. All subjects received oral cilansetron 8 mg TID on Days 1 to 5, and a single dose on the morning of Day 6. […] Blood samples were also collected at predose on Day 1, and at predose, 1 hour and 1.5 hours postdose on Day 6, for measurement of cilansetron protein binding in serum.

healthy subjects = assay: Study K.241.5007: rectal visceral perception; format: in vivo, human; settings: mean; for Pressure first producing abdominal pain, Differences from Placebo / Pressure first producing feeling of abdominal sensation, Differences from Placebo / Pressure first producing feeling of need to defecate, Differences from Placebo / Volume first producing abdominal pain, Differences from Placebo / Volume first producing feeling of abdominal sensation, Differences from Placebo / Volume first producing feeling of need to defecate, Differences from Placebo: not significant; for Pressure first producing abdominal pain / Pressure first producing feeling of abdominal sensation / Pressure first producing feeling of need to defecate / Volume first producing abdominal pain / Volume first producing feeling of abdominal sensation / Volume first producing feeling of need to defecate: rectal distension, absolute value
Experimental: The effect of cilansetron on rectal visceral perception was evaluated in a randomized, doubleblind, placebo-controlled, 4-way crossover study in 12 male healthy subjects (ITT population), aged 18-26 years. Subjects received single IV doses of placebo or cilansetron 4 mg, 8 mg, or 16 mg as 30-minute infusions during each of the periods, with a 14-day washout between periods. Rectal distension tests were done during each treatment, immediately following the completion of each infusion. An electronic barostat was used to produce isobarometric distensions (successive 4 mmHg increases every 5 minutes, up to a sensation of abdominal pain or a maximum of 44 mmHg). The primary efficacy parameter was the distension pressure required to induce a sensation of abdominal pain. Secondary parameters were the distension pressure at the first feeling of abdominal/rectal sensation and the first feeling of need to defecate, and the response rate (defined as the number of subjects who experienced no abdominal pain at the maximum pressure of 44 mmHg). The pain threshold for each of the three cilansetron doses was compared to placebo using a one-sided Dunnett t-test.

[4] = 8 mg TID oral 14 days, healthy elderly, Study K.241.5014, mean (SD)

For `Cc1nccn1C[C@H]1CCc2c(c3cccc4c3n2CCC4)C1=O` [Cilansetron, (R)-(−)-4,5,6,8,9,10-hexahydro-10-[(2-methyl-1H-imidazol-1-yl)methyl]-11H-pyrido-[3,2,1-jk]-carbazol-11-one], the clearance (clinical [1]) was 550 to 800 mL/min, the “DN-AUC(0-inf) ratio 8 mg/4 mg” value (clinical [1]; male) was 121% and the “DN-AUC(0-inf) ratio 16 mg/4 mg” value (clinical [1]; male) was 124%. The “DN-AUC(0-inf) ratio 16 mg/8 mg” value (clinical [1]; male) was 102%, the “DN-AUC(0-last) ratio 8 mg/4 mg” value (clinical [1]; male) was 123% and the “DN-AUC(0-last) ratio 16 mg/4 mg” value (clinical [1]; male) was 126%. The “DN-AUC(0-last) ratio 16 mg/8 mg” value (clinical [1]; male) was 102%, the Renal elimination (clinical [1]; male) was < 1 % of dose and the clearance (clinical [1]; male) was 550 to 700 mL/min. For the same compound, the half-life (clinical [1]; male) was 1.4 to 1.7 h, the AUC(0-inf) (clinical [1]; male, 4 mg) was 103 ng·h/mL and the AUC(0-t) (clinical [1]; male, 4 mg) was 100 ng·h/mL. The CL renal (clinical [1]; male, 4 mg) was 2.95 mL/min, the Vd (clinical [1]; male, 4 mg) was 99 L and the clearance (clinical [1]; male, 4 mg) was 680 mL/min. The half-life (clinical [1]; male, 4 mg) was 1.7 h, the AUC(0-inf) (clinical [1]; male, 8 mg) was 254 ng·h/mL and the AUC(0-t) (clinical [1]; male, 8 mg) was 251 ng·h/mL. For the same compound, the CL renal (clinical [1]; male, 8 mg) was 2.64 mL/min, the Vd (clinical [1]; male, 8 mg) was 78 L and the clearance (clinical [1]; male, 8 mg) was 567 mL/min. It also gave a half-life (clinical [1]; male, 8 mg) of 1.62 h, an AUC(0-inf) (clinical [1]; male, 16 mg) of 525 ng·h/mL and an AUC(0-t) (clinical [1]; male, 16 mg) of 518 ng·h/mL. The CL renal (clinical [1]; male, 16 mg) was 2.65 mL/min, the Vd (clinical [1]; male, 16 mg) was 68 L and the clearance (clinical [1]; male, 16 mg) was 564 mL/min. For the same compound, the half-life (clinical [1]; male, 16 mg) was 1.41 h, the “Total colonic transit time vs placebo” value ([2]; 8 mg TID) was “statistically significant increase” and the “Transit Times, Colonic Segments Left” value [2, 4] was 31.5 (30.5) hours. The “Transit Times, Colonic Segments Rectosigmoid” value [2, 4] was 16.7 (25.2) hours, the “Transit Times, Colonic Segments Right” value [2, 4] was 31.4 (21.0) hours and the “Transit Times, Colon Total” value ([2]; 8 mg TID oral 14 days, healthy elderly, Study K.241.5014, mean (SD), significant vs placebo (p < 0.05)) was 79.8 (49.8)* hours. For the same compound, the AUC (clinical [3]; AUC(0-τ), Geom. LS Mean) was 334 ng·h/mL, the Cmax (clinical [3]) was 94.4 ng/mL and the Cmax (clinical [3]; Geom. LS Mean) was 83.9 ng/mL. The Tmax (clinical [3]; Tmax) was 0.75 h, the half-life (clinical [3]; T½) was 8.16 h and the Vd/F (clinical [3]; Vz/F) was 388 L. For the same compound, the “Pressure first producing abdominal pain, Differences from Placebo” value (healthy subjects; 4 mg single IV dose) was 0.67 mmHg, the “Pressure first producing feeling of abdominal sensation, Differences from Placebo” value (healthy subjects; 4 mg single IV dose) was −1.00 mmHg and the “Pressure first producing feeling of need to defecate, Differences from Placebo” value (healthy subjects; 4 mg single IV dose) was −0.67 mmHg. For the same compound, the “Volume first producing abdominal pain, Differences from Placebo” value (healthy subjects; 4 mg single IV dose) was 12.7 mL, the “Volume first producing feeling of abdominal sensation, Differences from Placebo” value (healthy subjects; 4 mg single IV dose) was -20.0 mL and the “Volume first producing feeling of need to defecate, Differences from Placebo” value (healthy subjects; 4 mg single IV dose) was -8.75 mL. For the same compound, the “Pressure first producing abdominal pain” value (healthy subjects; 4 mg single IV dose) was 31.0 mmHg, the “Pressure first producing feeling of abdominal sensation” value (healthy subjects; 4 mg single IV dose) was 12.7 mmHg and the “Pressure first producing feeling of need to defecate” value (healthy subjects; 4 mg single IV dose) was 20.3 mmHg. The “Volume first producing abdominal pain” value (healthy subjects; 4 mg single IV dose) was 310 mL, the “Volume first producing feeling of abdominal sensation” value (healthy subjects; 4 mg single IV dose) was 132 mL and the “Volume first producing feeling of need to defecate” value (healthy subjects; 4 mg single IV dose) was 233 mL. The “Pressure first producing abdominal pain, Differences from Placebo” value (healthy subjects; 8 mg single IV dose) was 2.00 mmHg, the “Pressure first producing feeling of abdominal sensation, Differences from Placebo” value (healthy subjects; 8 mg single IV dose) was −1.67 mmHg and the “Pressure first producing feeling of need to defecate, Differences from Placebo” value (healthy subjects; 8 mg single IV dose) was −0.67 mmHg. The “Volume first producing abdominal pain, Differences from Placebo” value (healthy subjects; 8 mg single IV dose) was -0.83 mL, the “Volume first producing feeling of abdominal sensation, Differences from Placebo” value (healthy subjects; 8 mg single IV dose) was -19.2 mL and the “Volume first producing feeling of need to defecate, Differences from Placebo” value (healthy subjects; 8 mg single IV dose) was -10.0 mL. For the same compound, the “Pressure first producing abdominal pain” value (healthy subjects; 8 mg single IV dose) was 32.3 mmHg, the “Pressure first producing feeling of abdominal sensation” value (healthy subjects; 8 mg single IV dose) was 12.0 mmHg and the “Pressure first producing feeling of need to defecate” value (healthy subjects; 8 mg single IV dose) was 20.3 mmHg. The “Volume first producing abdominal pain” value (healthy subjects; 8 mg single IV dose) was 297 mL, the “Volume first producing feeling of abdominal sensation” value (healthy subjects; 8 mg single IV dose) was 133 mL and the “Volume first producing feeling of need to defecate” value (healthy subjects; 8 mg single IV dose) was 232 mL. The “Pressure first producing abdominal pain, Differences from Placebo” value (healthy subjects; 16 mg single IV dose) was 1.33 mmHg, the “Pressure first producing feeling of abdominal sensation, Differences from Placebo” value (healthy subjects; 16 mg single IV dose) was −1.00 mmHg and the “Pressure first producing feeling of need to defecate, Differences from Placebo” value (healthy subjects; 16 mg single IV dose) was −1.00 mmHg. For the same compound, the “Volume first producing abdominal pain, Differences from Placebo” value (healthy subjects; 16 mg single IV dose) was 15.8 mL, the “Volume first producing feeling of abdominal sensation, Differences from Placebo” value (healthy subjects; 16 mg single IV dose) was -14.2 mL and the “Volume first producing feeling of need to defecate, Differences from Placebo” value (healthy subjects; 16 mg single IV dose) was -3.75 mL. The “Pressure first producing abdominal pain” value (healthy subjects; 16 mg single IV dose) was 31.7 mmHg, the “Pressure first producing feeling of abdominal sensation” value (healthy subjects; 16 mg single IV dose) was 12.7 mmHg and the “Pressure first producing feeling of need to defecate” value (healthy subjects; 16 mg single IV dose) was 20.0 mmHg. For the same compound, the “Volume first producing abdominal pain” value (healthy subjects; 16 mg single IV dose) was 313 mL, the “Volume first producing feeling of abdominal sensation” value (healthy subjects; 16 mg single IV dose) was 138 mL and the “Volume first producing feeling of need to defecate” value (healthy subjects; 16 mg single IV dose) was 238 mL.

— patent US20090176817A1, “Method of Treatment of Diarrhea-Predominant Irritable Bowel Syndrome in a Subject” (priority 2005, published 2009)
